Experimental data taken from US20020019543A1, “Thiol derivative, metallo-beta-lactamase inhibitors” (priority 2000, published 2002).

Columns and labels:
[1] = test system: E. coli BL21(DE3)/pET30a-IMP-1; format: cell-based; details: thioester conc giving 4-fold increase in sensitivity to the Merck carbapenem (0.25x MIC), no visible growth after 20 hours at 35° C.
From the text: (§1) A laboratory strain of E.coli engineered to express IMP-1 was used to evaluate the ability of thiol derivatives to reverse metallo-β-lactamase-mediated carbapenem resistance in bacteria. Native IMP-1, which included the N-terminal periplasmic signal sequence, was PCR amplified from […] isolated from a carbapenem resistant P. aeruginosa clinical isolate, CL56673, and cloned into the pET30a vector.

[2] = test system: E. coli BL21(DE3); assay: Carbapenem sensitivity (MIC) of E. coli BL21(DE3) with and without IMP-1 expression; format: cell-based; details: for fold reduced sensitivity caused by basal (uninduced) IMP-1 expression: pET30a-IMP-1 in E. coli BL21(DE3)
Method: as §1, with “vector. […] Various concentrations of IMP-1 inhibitor were added to the bacterial growth medium and their capacity to effect a four-fold or greater increase in sensitivity to the carbapenem was monitored.” for “vector.”

Row | Compound | Effective conc for 4-fold reduction of MIC in E. coli [1] | fold reduced sensitivity caused by basal (uninduced) IMP-1 expression [2] [fold] | further results
1 | CC(=O)N[C@H](C)C(=O)S[C@H](Cc1ccc(-c2ccccc2)cc1)C(=O)O [Example 13] | 6.3 µM | – | –
2 | CC(=O)SC(Cc1ccc2oc3ccccc3c2c1)C(=O)O (centres unmarked) [Example 78] | ≦0.1 μM | – | –
3 | O=C(SC(Cc1ccc2oc3ccccc3c2c1)C(=O)O)c1ccccc1 (centres unmarked) [Example 79] | 0.2 µM | – | –
4 | C[C@@H](O)[C@H]1C(=O)N2C(C(=O)O)=C(SCCN=CN)C[C@H]12 [impenem] | – | 4 | –
5 | C[C@@H](O)[C@H]1C(=O)N2C(C(=O)O)=C(S[C@@H]3CN[C@H](C(=O)N(C)C)C3)[C@H](C)[C@H]12 [meropenem] | – | 64 | –
6 | (1S,5R,6S)-1-methyl-2-{7-[4-(aminocarbonylmethyl)-1,4-diazoniabicyclo(2.2.2)octan-1-yl]methyl-fluoren-9-on-3-yl}-6-(1R-hydroxyethyl)-carbapen-2-em-3-carboxylate chloride | – | 500 | minimum inhibitory concentration (MIC), without IMP-1 expression ([2]; E. coli BL21(DE3), before expression of IMP-1): 0.06 to 0.12 µg/mL; minimum inhibitory concentration (MIC), with IMP-1 expression ([2]; E. coli BL21(DE3)/pET30a-IMP-1, basal IMP-1 expression): 16 to 32 µg/mL
